# Key:
# [1] = biological target: T1, PIK3CA(H1047L) (Homo sapiens, UniProt P42336, H1047L); assay: KINOMEscan at 1 μM, PIK3CA(H1047L); format: binding; settings: 1000 nM, read-out: Percent Control
# T1 construct: purchased Eurofins DiscoverX KINOMEscan
# Description: (§1) Supplement cells-12-00287-s001.zip/File S2. KinomeScan data for the CAMKK2 probe and negative control.xlsx, sheet "SGC-CAMKK2-1N" | column: Percent Control
# [2] = biological target: T2, MKNK2 (Homo sapiens, UniProt Q9HBH9); assay: KINOMEscan at 1 μM, MKNK2; format: binding; settings: 1000 nM, read-out: Percent Control
# T2 construct: purchased Eurofins DiscoverX KINOMEscan
# Description: as §1
# [3] = biological target: T3, ABL1(Y253F)-phosphorylated (Homo sapiens, UniProt P00519, Y253F); assay: KINOMEscan at 1 μM, ABL1(Y253F)-phosphorylated; format: binding; settings: 1000 nM, read-out: Percent Control
# T3 construct: purchased Eurofins DiscoverX KINOMEscan
# Description: as §1
# [4] = biological target: T4, MARK2 (Homo sapiens, UniProt Q7KZI7); assay: KINOMEscan at 1 μM, MARK2; format: binding; settings: 1000 nM, read-out: Percent Control
# T4 construct: purchased Eurofins DiscoverX KINOMEscan
# Description: as §1
# [5] = biological target: T5, ICK (Homo sapiens, UniProt Q9UPZ9); assay: KINOMEscan at 1 μM, ICK; format: binding; settings: 1000 nM, read-out: Percent Control
# T5 construct: purchased Eurofins DiscoverX KINOMEscan
# Description: as §1
# [6] = biological target: T6, SRMS (Homo sapiens, UniProt Q9H3Y6); assay: KINOMEscan at 1 μM, SRMS; format: binding; settings: 1000 nM, read-out: Percent Control
# T6 construct: purchased Eurofins DiscoverX KINOMEscan
# Description: as §1
# [7] = biological target: T7, ERK5 (Homo sapiens, UniProt Q13164); assay: KINOMEscan at 1 μM, ERK5; format: binding; settings: 1000 nM, read-out: Percent Control
# T7 construct: purchased Eurofins DiscoverX KINOMEscan
# Description: as §1
# [8] = biological target: T8, FGFR2 (Homo sapiens, UniProt P21802); assay: KINOMEscan at 1 μM, FGFR2; format: binding; settings: 1000 nM, read-out: Percent Control
# T8 construct: purchased Eurofins DiscoverX KINOMEscan
# Description: as §1
# [9] = biological target: T9, BRSK1 (Homo sapiens, UniProt Q8TDC3); assay: KINOMEscan at 1 μM, BRSK1; format: binding; settings: 1000 nM, read-out: Percent Control
# T9 construct: purchased Eurofins DiscoverX KINOMEscan
# Description: as §1
# [10] = biological target: T10, DYRK1B (Homo sapiens, UniProt Q9Y463); assay: KINOMEscan at 1 μM, DYRK1B; format: binding; settings: 1000 nM, read-out: Percent Control
# T10 construct: purchased Eurofins DiscoverX KINOMEscan
# Description: as §1
# [11] = biological target: T11, CSF1R (Homo sapiens, UniProt P07333); assay: KINOMEscan at 1 μM, CSF1R; format: binding; settings: 1000 nM, read-out: Percent Control
# T11 construct: purchased Eurofins DiscoverX KINOMEscan
# Description: as §1
# [12] = biological target: T12, DCAMKL1 (Homo sapiens, UniProt O15075); assay: KINOMEscan at 1 μM, DCAMKL1; format: binding; settings: 1000 nM, read-out: Percent Control
# T12 construct: purchased Eurofins DiscoverX KINOMEscan
# Description: as §1
# [13] = biological target: T13, DMPK2 (Homo sapiens, UniProt Q6DT37); assay: KINOMEscan at 1 μM, DMPK2; format: binding; settings: 1000 nM, read-out: Percent Control
# T13 construct: purchased Eurofins DiscoverX KINOMEscan
# Description: as §1
# [14] = biological target: T14, EGFR(G719S) (Homo sapiens, UniProt P00533, G719S); assay: KINOMEscan binding assay at 1 μM, EGFR(G719S); settings: Compound Concentration 1000 nM; read-out: Percent Control
# T14 construct: purchased Eurofins DiscoverX KINOMEscan
# Description: as §1
# [15] = biological target: T15, GCN2(Kin.Dom.2,S808G) (Homo sapiens, UniProt Q9P2K8, S808G); assay: KINOMEscan binding assay at 1 μM, GCN2(Kin.Dom.2,S808G); settings: Compound Concentration 1000 nM; read-out: Percent Control
# T15 construct: GCN2(Kin.Dom.2,S808G); purchased Eurofins DiscoverX KINOMEscan
# Description: as §1
# [16] = biological target: T16, GRK4 (Homo sapiens, UniProt P32298); assay: KINOMEscan binding assay at 1 μM, GRK4; settings: Compound Concentration 1000 nM; read-out: Percent Control
# T16 construct: purchased Eurofins DiscoverX KINOMEscan
# Description: as §1
# [17] = biological target: T17, MARK4 (Homo sapiens, UniProt Q96L34); assay: KINOMEscan binding assay at 1 μM, MARK4; settings: Compound Concentration 1000 nM; read-out: Percent Control
# T17 construct: purchased Eurofins DiscoverX KINOMEscan
# Description: as §1
# [18] = biological target: T18, NEK9 (Homo sapiens, UniProt Q8TD19); assay: KINOMEscan binding assay at 1 μM, NEK9; settings: Compound Concentration 1000 nM; read-out: Percent Control
# T18 construct: purchased Eurofins DiscoverX KINOMEscan
# Description: as §1
# [19] = biological target: T19, SLK (Homo sapiens, UniProt Q9H2G2); assay: KINOMEscan binding assay at 1 μM, SLK; settings: Compound Concentration 1000 nM; read-out: Percent Control
# T19 construct: purchased Eurofins DiscoverX KINOMEscan
# Description: as §1
# [20] = biological target: T20, ACVR2B (Homo sapiens, UniProt Q13705); assay: KINOMEscan 1 μM, ACVR2B; format: binding; settings: 1000 nM; Entrez ACVR2B; read-out: Percent Control
# T20 construct: purchased Eurofins DiscoverX KINOMEscan
# Description: (§2) Supplement cells-12-00287-s001.zip/File S2. KinomeScan data for the CAMKK2 probe and negative control.xlsx, sheet "SGC-CAMKK2-1" | column: Percent Control
# [21] = biological target: T21, MAST1 (Homo sapiens, UniProt Q9Y2H9); assay: KINOMEscan 1 μM, MAST1; format: binding; settings: 1000 nM; Entrez MAST1; read-out: Percent Control
# T21 construct: purchased Eurofins DiscoverX KINOMEscan
# Description: as §2
# [22] = biological target: T22, NLK (Homo sapiens, UniProt Q9UBE8); assay: KINOMEscan 1 μM, NLK; format: binding; settings: 1000 nM; Entrez NLK; read-out: Percent Control
# T22 construct: purchased Eurofins DiscoverX KINOMEscan
# Description: as §2
# [23] = biological target: T23, FLT3(D835Y) (Homo sapiens, UniProt P36888, D835Y); assay: KINOMEscan 1 μM, FLT3(D835Y); format: binding; settings: 1000 nM; Entrez FLT3; read-out: Percent Control
# T23 construct: purchased Eurofins DiscoverX KINOMEscan
# Description: as §2
# [24] = biological target: T24, STK16 (Homo sapiens, UniProt O75716); assay: KINOMEscan 1 μM, STK16; format: binding; settings: 1000 nM; Entrez STK16; read-out: Percent Control
# T24 construct: purchased Eurofins DiscoverX KINOMEscan
# Description: as §2
# [25] = biological target: T25, CDKL3 (Homo sapiens, UniProt Q8IVW4); assay: KINOMEscan 1 μM, CDKL3; format: binding; settings: 1000 nM; Entrez CDKL3; read-out: Percent Control
# T25 construct: purchased Eurofins DiscoverX KINOMEscan
# Description: as §2
# [26] = biological target: T26, PRKG2 (Homo sapiens, UniProt Q13237); assay: KINOMEscan 1 μM, PRKG2; format: binding; settings: 1000 nM; Entrez PRKG2; read-out: Percent Control
# T26 construct: purchased Eurofins DiscoverX KINOMEscan
# Description: as §2
# [27] = biological target: T27, MAP4K2 (Homo sapiens, UniProt Q12851); assay: KINOMEscan 1 μM, MAP4K2; format: binding; settings: 1000 nM; Entrez MAP4K2; read-out: Percent Control
# T27 construct: purchased Eurofins DiscoverX KINOMEscan
# Description: as §2
# [28] = biological target: T28, MINK (Homo sapiens, UniProt Q8N4C8); assay: KINOMEscan 1 μM, MINK; format: binding; settings: 1000 nM; Entrez MINK1; read-out: Percent Control
# T28 construct: purchased Eurofins DiscoverX KINOMEscan
# Description: as §2
# [29] = biological target: T29, PFTK1 (Homo sapiens, UniProt O94921); assay: DiscoverX KINOMEscan binding assay at 1 μM, PFTK1; settings: PFTK1 (CDK14); Compound Concentration 1000 nM; read-out: Percent Control
# T29 construct: purchased Eurofins DiscoverX KINOMEscan
# Description: as §2
# [30] = biological target: T30, PIK3CA(C420R) (Homo sapiens, UniProt P42336, C420R); assay: DiscoverX KINOMEscan binding assay at 1 μM, PIK3CA(C420R); settings: Compound Concentration 1000 nM, read-out: Percent Control
# T30 construct: purchased Eurofins DiscoverX KINOMEscan
# Description: as §2
# [31] = biological target: T31, RIPK5 (Homo sapiens, UniProt Q6XUX3); assay: DiscoverX KINOMEscan binding assay at 1 μM, RIPK5; settings: RIPK5 (DSTYK); Compound Concentration 1000 nM; read-out: Percent Control
# T31 construct: purchased Eurofins DiscoverX KINOMEscan
# Description: as §2
# [32] = biological target: T32, RPS6KA4(Kin.Dom.1-N-terminal) (Homo sapiens, UniProt O75676); assay: DiscoverX KINOMEscan binding assay at 1 μM, RPS6KA4(Kin.Dom.1-N-terminal); settings: Compound Concentration 1000 nM, read-out: Percent Control
# T32 construct: RPS6KA4(Kin.Dom.1-N-terminal); purchased Eurofins DiscoverX KINOMEscan
# Description: as §2
# [33] = biological target: T33, WEE2 (Homo sapiens, UniProt P0C1S8); assay: DiscoverX KINOMEscan binding assay at 1 μM, WEE2; settings: Compound Concentration 1000 nM, read-out: Percent Control
# T33 construct: purchased Eurofins DiscoverX KINOMEscan
# Description: as §2
# T26 sequence (Q13237 whole entry): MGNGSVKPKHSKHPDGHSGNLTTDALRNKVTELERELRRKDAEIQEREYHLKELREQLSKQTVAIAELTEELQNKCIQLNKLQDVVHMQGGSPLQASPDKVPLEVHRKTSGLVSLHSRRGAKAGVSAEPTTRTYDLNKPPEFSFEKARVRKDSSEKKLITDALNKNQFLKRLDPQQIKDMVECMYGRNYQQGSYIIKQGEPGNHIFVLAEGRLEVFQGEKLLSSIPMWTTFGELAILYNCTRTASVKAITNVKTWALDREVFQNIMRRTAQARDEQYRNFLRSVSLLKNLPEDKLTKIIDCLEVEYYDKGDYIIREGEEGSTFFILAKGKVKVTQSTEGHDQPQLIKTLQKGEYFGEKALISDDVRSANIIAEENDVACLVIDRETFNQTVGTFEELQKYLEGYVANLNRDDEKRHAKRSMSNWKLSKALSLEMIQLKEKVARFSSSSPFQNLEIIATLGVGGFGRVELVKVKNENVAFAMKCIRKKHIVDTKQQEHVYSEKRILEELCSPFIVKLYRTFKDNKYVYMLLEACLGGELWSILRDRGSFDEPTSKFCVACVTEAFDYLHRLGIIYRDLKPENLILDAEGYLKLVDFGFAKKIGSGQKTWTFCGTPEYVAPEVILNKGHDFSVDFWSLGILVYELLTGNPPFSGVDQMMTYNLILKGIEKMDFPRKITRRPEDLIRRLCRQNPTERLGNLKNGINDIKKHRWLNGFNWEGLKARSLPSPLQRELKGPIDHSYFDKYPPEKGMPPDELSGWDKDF
# T21 sequence (Q9Y2H9 whole entry): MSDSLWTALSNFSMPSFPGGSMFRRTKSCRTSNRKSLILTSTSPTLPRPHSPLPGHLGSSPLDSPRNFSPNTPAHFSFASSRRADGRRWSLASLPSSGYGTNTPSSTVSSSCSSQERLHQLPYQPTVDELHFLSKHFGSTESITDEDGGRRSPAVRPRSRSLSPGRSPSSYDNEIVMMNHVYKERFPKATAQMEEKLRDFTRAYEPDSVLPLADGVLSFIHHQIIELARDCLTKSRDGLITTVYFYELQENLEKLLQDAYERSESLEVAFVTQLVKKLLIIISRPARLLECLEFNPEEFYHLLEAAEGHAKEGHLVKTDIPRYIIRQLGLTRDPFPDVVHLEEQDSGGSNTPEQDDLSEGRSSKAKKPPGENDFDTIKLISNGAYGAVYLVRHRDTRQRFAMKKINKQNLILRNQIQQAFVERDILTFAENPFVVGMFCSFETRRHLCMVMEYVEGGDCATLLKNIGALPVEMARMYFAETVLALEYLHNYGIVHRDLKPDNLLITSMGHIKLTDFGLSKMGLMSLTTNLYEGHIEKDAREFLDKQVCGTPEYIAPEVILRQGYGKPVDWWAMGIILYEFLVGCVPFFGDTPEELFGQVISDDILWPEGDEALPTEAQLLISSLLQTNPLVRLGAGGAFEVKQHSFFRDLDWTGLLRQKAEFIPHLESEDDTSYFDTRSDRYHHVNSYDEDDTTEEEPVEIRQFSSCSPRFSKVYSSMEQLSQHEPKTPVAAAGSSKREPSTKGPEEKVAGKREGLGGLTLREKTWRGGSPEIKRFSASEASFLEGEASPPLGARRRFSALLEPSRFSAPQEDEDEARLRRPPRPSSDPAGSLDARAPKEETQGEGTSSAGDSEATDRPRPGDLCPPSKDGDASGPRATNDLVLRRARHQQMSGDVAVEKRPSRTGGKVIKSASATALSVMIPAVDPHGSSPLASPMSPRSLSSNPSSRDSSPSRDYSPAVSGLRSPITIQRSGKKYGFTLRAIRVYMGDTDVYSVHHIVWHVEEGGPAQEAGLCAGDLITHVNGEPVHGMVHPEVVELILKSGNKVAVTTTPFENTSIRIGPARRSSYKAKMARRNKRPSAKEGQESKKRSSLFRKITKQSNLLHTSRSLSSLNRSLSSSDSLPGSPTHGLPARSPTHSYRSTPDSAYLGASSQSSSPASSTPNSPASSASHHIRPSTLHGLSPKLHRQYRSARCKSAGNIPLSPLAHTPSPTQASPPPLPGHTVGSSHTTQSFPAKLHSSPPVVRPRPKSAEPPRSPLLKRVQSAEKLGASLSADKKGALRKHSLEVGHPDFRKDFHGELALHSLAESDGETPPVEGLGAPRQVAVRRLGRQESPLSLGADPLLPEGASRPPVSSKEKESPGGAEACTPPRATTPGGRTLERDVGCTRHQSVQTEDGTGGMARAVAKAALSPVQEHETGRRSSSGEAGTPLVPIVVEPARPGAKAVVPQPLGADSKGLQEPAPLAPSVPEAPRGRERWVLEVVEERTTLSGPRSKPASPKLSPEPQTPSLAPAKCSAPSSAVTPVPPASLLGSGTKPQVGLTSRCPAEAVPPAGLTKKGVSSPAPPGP
# T14 sequence (P00533 25-1210 G719S): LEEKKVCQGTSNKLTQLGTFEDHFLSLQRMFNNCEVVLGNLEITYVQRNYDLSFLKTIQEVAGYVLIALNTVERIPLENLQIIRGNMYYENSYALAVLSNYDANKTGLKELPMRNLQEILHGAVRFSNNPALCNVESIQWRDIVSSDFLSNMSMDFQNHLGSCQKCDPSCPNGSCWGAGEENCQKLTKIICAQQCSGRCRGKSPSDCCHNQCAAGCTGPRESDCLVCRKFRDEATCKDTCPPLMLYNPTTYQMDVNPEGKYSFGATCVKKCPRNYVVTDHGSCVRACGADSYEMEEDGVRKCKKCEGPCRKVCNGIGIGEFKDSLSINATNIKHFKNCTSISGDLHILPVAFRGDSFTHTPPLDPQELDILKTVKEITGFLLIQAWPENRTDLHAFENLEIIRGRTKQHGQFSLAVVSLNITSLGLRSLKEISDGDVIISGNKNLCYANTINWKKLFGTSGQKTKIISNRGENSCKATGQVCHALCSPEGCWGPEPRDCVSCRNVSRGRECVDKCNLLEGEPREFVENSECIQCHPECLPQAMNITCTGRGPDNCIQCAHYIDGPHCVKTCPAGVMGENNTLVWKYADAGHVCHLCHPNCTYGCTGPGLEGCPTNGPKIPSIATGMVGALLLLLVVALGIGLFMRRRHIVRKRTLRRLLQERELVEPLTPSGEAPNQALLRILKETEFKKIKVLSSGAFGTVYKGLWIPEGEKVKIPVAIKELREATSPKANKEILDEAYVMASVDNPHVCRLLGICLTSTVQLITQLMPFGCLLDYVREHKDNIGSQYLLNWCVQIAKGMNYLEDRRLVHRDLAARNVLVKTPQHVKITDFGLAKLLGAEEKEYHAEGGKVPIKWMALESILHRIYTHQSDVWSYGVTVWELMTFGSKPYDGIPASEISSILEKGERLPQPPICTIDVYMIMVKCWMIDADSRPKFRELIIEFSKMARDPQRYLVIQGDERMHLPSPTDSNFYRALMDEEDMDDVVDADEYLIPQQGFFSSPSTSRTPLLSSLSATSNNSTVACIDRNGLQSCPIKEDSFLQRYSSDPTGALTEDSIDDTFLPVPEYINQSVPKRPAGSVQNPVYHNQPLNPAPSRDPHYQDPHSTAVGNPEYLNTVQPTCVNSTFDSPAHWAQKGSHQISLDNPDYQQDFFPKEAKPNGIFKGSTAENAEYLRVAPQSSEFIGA
# T28 sequence (Q8N4C8 whole entry): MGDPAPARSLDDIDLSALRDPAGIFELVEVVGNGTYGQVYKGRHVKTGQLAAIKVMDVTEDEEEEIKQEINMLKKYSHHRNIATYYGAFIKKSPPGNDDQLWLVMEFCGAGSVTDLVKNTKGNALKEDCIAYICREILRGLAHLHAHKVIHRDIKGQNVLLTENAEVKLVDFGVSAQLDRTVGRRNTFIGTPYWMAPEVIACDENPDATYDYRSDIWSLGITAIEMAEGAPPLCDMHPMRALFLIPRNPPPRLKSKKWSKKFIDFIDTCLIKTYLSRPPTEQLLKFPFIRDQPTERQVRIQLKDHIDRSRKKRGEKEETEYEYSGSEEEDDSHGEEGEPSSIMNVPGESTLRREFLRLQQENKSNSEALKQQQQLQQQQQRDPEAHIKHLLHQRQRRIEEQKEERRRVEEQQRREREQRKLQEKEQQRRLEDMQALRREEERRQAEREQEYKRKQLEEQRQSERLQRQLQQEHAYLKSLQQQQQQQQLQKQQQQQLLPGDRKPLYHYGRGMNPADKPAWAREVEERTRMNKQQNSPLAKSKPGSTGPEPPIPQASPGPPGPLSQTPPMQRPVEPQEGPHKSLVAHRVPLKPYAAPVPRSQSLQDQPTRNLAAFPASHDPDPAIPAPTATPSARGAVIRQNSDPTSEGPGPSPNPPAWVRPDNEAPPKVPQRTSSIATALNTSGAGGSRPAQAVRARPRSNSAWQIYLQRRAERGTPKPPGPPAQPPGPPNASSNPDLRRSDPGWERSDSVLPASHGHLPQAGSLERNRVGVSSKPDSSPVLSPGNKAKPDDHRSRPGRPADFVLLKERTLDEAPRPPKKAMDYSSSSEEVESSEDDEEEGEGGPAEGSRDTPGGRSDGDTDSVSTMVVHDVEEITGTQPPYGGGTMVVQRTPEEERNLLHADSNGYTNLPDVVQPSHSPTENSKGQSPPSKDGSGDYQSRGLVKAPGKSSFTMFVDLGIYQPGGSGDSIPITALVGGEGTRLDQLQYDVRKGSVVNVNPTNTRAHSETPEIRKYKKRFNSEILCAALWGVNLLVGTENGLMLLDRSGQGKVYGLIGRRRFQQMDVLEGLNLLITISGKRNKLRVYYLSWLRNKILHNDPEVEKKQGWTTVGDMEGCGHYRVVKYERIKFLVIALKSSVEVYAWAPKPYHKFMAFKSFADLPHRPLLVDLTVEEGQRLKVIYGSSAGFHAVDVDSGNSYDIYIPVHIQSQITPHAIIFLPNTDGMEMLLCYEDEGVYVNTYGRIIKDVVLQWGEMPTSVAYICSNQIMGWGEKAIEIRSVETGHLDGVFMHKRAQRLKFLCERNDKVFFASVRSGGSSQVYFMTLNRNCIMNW
compound,measurement,setting,value
O=C(O)c1ccc(-c2coc3ncc(-c4ccccc4)cc23)cc1Cl [SGC-CAMKK2-1N (UNC-YL-83)],remaining binding at 1 µM,[1],53%
same,remaining binding at 1 µM,[2],67%
same,remaining binding at 1 µM,[3],69%
same,remaining binding at 1 µM,[4],70%
same,remaining binding at 1 µM,[5],71%
same,remaining binding at 1 µM,[6],79%
same,remaining binding at 1 µM,[7],81%
same,remaining binding at 1 µM,[8],84%
same,remaining binding at 1 µM,[9],92%
same,remaining binding at 1 µM,[10],94%
same,remaining binding at 1 µM,[11],100%
same,remaining binding at 1 µM,[12],100%
same,remaining binding at 1 µM,[13],100%
same,remaining binding at 1 µM,[14],100%
same,remaining binding at 1 µM,[15],100%
same,remaining binding at 1 µM,[16],100%
same,remaining binding at 1 µM,[17],100%
same,remaining binding at 1 µM,[18],100%
same,remaining binding at 1 µM,[19],100%
Cc1cccc(-c2cnc3occ(-c4ccc(C(=O)O)c(C5CCCC5)c4)c3c2)c1 [SGC-CAMKK2-1 (YL-36)],remaining binding at 1 µM,[20],43%
same,remaining binding at 1 µM,[21],65%
same,remaining binding at 1 µM,[22],81%
same,remaining binding at 1 µM,[23],89%
same,remaining binding at 1 µM,[24],93%
same,remaining binding at 1 µM,[25],96%
same,remaining binding at 1 µM,[26],99%
same,remaining binding at 1 µM,[27],100%
same,remaining binding at 1 µM,[28],100%
same,remaining binding at 1 µM,[29],100%
same,remaining binding at 1 µM,[30],100%
same,remaining binding at 1 µM,[31],100%
same,remaining binding at 1 µM,[32],100%
same,remaining binding at 1 µM,[33],100%

# Reference: publication PMC9856672, “SGC-CAMKK2-1: A Chemical Probe for CAMKK2” (Cells, 2023)
